Data reported in PubChem BioAssay (NCI).
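Each compound was tested at five concentrations against cells in 96-well plates for 48 hours. GI50 is the concentration that inhibits growth by half. TGI denotes the concentration required for complete inhibition of growth.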

Columns and labels:
Test in all cases: DTP human tumour cell line panel, 48 h
786-0 renal = tested on: 786-0 renal
ACHN renal = tested on: ACHN renal
HCT-15 colon = tested on: HCT-15 colon
SR leukemia = tested on: SR leukemia
MCF7 breast = tested on: MCF7 breast
SK-MEL-2 melanoma = tested on: SK-MEL-2 melanoma
NCI/ADR-RES ovarian = tested on: NCI/ADR-RES ovarian
NCI-H23 lung = tested on: NCI-H23 lung
SF-539 CNS = tested on: SF-539 CNS
OVCAR-5 ovarian = tested on: OVCAR-5 ovarian
UACC-257 melanoma = tested on: UACC-257 melanoma
NCI-H522 lung = tested on: NCI-H522 lung
NCI-H460 lung = tested on: NCI-H460 lung
KM12 colon = tested on: KM12 colon
COLO 205 colon = tested on: COLO 205 colon
OVCAR-3 ovarian = tested on: OVCAR-3 ovarian
EKVX NSCLC = tested on: EKVX NSCLC
RPMI-8226 leukemia = tested on: RPMI-8226 leukemia
SK-MEL-28 melanoma = tested on: SK-MEL-28 melanoma
OVCAR-4 ovarian = tested on: OVCAR-4 ovarian
A549 NSCLC = tested on: A549 NSCLC
UO-31 renal = tested on: UO-31 renal
HOP-92 NSCLC = tested on: HOP-92 NSCLC
SF-268 CNS = tested on: SF-268 CNS
HCT-116 colon = tested on: HCT-116 colon
SW-620 colon = tested on: SW-620 colon
MDA-MB-231 breast = tested on: MDA-MB-231 breast
T-47D breast = tested on: T-47D breast
CAKI-1 renal = tested on: CAKI-1 renal
SN12C renal = tested on: SN12C renal
SK-OV-3 ovarian = tested on: SK-OV-3 ovarian
K-562 leukemia = tested on: K-562 leukemia
PC-3 prostate = tested on: PC-3 prostate
IGROV1 ovarian = tested on: IGROV1 ovarian
SNB-19 CNS = tested on: SNB-19 CNS
TK-10 renal = tested on: TK-10 renal
HCC-2998 colon = tested on: HCC-2998 colon
HOP-62 NSCLC = tested on: HOP-62 NSCLC
OVCAR-8 ovarian = tested on: OVCAR-8 ovarian
BT-549 breast = tested on: BT-549 breast
HS 578T breast = tested on: HS 578T breast
HL-60(TB) leukemia = tested on: HL-60(TB) leukemia
SK-MEL-5 melanoma = tested on: SK-MEL-5 melanoma
SNB-75 CNS = tested on: SNB-75 CNS
SF-295 CNS = tested on: SF-295 CNS
MOLT-4 leukemia = tested on: MOLT-4 leukemia
U251 CNS = tested on: U251 CNS
RXF 393 renal = tested on: RXF 393 renal
DU-145 prostate = tested on: DU-145 prostate
NCI-H226 lung = tested on: NCI-H226 lung
HT29 colon = tested on: HT29 colon
UACC-62 melanoma = tested on: UACC-62 melanoma
M14 melanoma = tested on: M14 melanoma
MDA-MB-435 = tested on: MDA-MB-435
LOX IMVI melanoma = tested on: LOX IMVI melanoma

COC(=O)C1=C(OC(=O)c2ccccc2)C(C(=O)OC)[C@]2(O)[C@@H](C(=O)OC)C1CC(c1ccccc1OC)[C@@H]2C(=O)OC (stereo not given in full)
GI50 (786-0 renal): 30.8 µM
TGI (786-0 renal): > 100 µM
GI50 (ACHN renal): 41.9 µM
TGI (ACHN renal): > 100 µM
GI50 (HCT-15 colon): 30.1 µM
TGI (HCT-15 colon): > 100 µM
GI50 (SR leukemia): 1.54 µM
TGI (SR leukemia): 5.16 µM
GI50 (MCF7 breast): 77.5 µM
TGI (MCF7 breast): > 100 µM
GI50 (SK-MEL-2 melanoma): 36.2 µM
TGI (SK-MEL-2 melanoma): > 100 µM
GI50 (NCI/ADR-RES ovarian): 21 µM
TGI (NCI/ADR-RES ovarian): 55.5 µM
GI50 (NCI-H23 lung): 24.2 µM
TGI (NCI-H23 lung): 72.7 µM
GI50 (SF-539 CNS): 3.45 µM
TGI (SF-539 CNS): 10.8 µM
GI50 (OVCAR-5 ovarian): 41.5 µM
TGI (OVCAR-5 ovarian): > 100 µM
GI50 (UACC-257 melanoma): 5.37 µM
TGI (UACC-257 melanoma): 34.8 µM
GI50 (NCI-H522 lung): 8.93 µM
TGI (NCI-H522 lung): > 100 µM
GI50 (NCI-H460 lung): 50.9 µM
TGI (NCI-H460 lung): > 100 µM
GI50 (KM12 colon): 7.9 µM
TGI (KM12 colon): > 100 µM
GI50 (COLO 205 colon): 15.5 µM
TGI (COLO 205 colon): > 100 µM
GI50 (OVCAR-3 ovarian): 2.55 µM
TGI (OVCAR-3 ovarian): > 100 µM
GI50 (EKVX NSCLC): 4.02 µM
TGI (EKVX NSCLC): 35.3 µM
GI50 (RPMI-8226 leukemia): 6.17 µM
TGI (RPMI-8226 leukemia): 38.2 µM
GI50 (SK-MEL-28 melanoma): 23.2 µM
TGI (SK-MEL-28 melanoma): > 100 µM
GI50 (OVCAR-4 ovarian): 4.75 µM
TGI (OVCAR-4 ovarian): > 100 µM
GI50 (A549 NSCLC): 12.9 µM
TGI (A549 NSCLC): 77.9 µM
GI50 (UO-31 renal): 13.9 µM
TGI (UO-31 renal): 50.5 µM
GI50 (HOP-92 NSCLC): 2.69 µM
TGI (HOP-92 NSCLC): 31 µM
GI50 (SF-268 CNS): > 100 µM
TGI (SF-268 CNS): > 100 µM
GI50 (HCT-116 colon): 13.9 µM
TGI (HCT-116 colon): 52.8 µM
GI50 (SW-620 colon): 15.3 µM
TGI (SW-620 colon): > 100 µM
GI50 (MDA-MB-231 breast): 14.7 µM
TGI (MDA-MB-231 breast): 60.2 µM
GI50 (T-47D breast): 22 µM
TGI (T-47D breast): > 100 µM
GI50 (CAKI-1 renal): 3.99 µM
TGI (CAKI-1 renal): > 100 µM
GI50 (SN12C renal): 10.2 µM
TGI (SN12C renal): 51.5 µM
GI50 (SK-OV-3 ovarian): 5.62 µM
TGI (SK-OV-3 ovarian): > 100 µM
GI50 (K-562 leukemia): 17.6 µM
TGI (K-562 leukemia): > 100 µM
GI50 (PC-3 prostate): 9.08 µM
TGI (PC-3 prostate): 69.2 µM
GI50 (IGROV1 ovarian): 44.5 µM
TGI (IGROV1 ovarian): > 100 µM
GI50 (SNB-19 CNS): 25.1 µM
TGI (SNB-19 CNS): > 100 µM
GI50 (TK-10 renal): 26.5 µM
TGI (TK-10 renal): > 100 µM
GI50 (HCC-2998 colon): 17.6 µM
TGI (HCC-2998 colon): 34.1 µM
GI50 (HOP-62 NSCLC): 38.3 µM
TGI (HOP-62 NSCLC): > 100 µM
GI50 (OVCAR-8 ovarian): 18.4 µM
TGI (OVCAR-8 ovarian): > 100 µM
GI50 (BT-549 breast): 5.58 µM
TGI (BT-549 breast): 83.6 µM
GI50 (HS 578T breast): 5.98 µM
TGI (HS 578T breast): 83.4 µM
GI50 (HL-60(TB) leukemia): 14.7 µM
TGI (HL-60(TB) leukemia): 67.1 µM
GI50 (SK-MEL-5 melanoma): 4.09 µM
TGI (SK-MEL-5 melanoma): 20.5 µM
GI50 (SNB-75 CNS): 10.7 µM
TGI (SNB-75 CNS): > 100 µM
GI50 (SF-295 CNS): 5.41 µM
TGI (SF-295 CNS): > 100 µM
GI50 (MOLT-4 leukemia): 5.52 µM
TGI (MOLT-4 leukemia): 37.8 µM
GI50 (U251 CNS): 37.9 µM
TGI (U251 CNS): > 100 µM
GI50 (RXF 393 renal): 2.53 µM
TGI (RXF 393 renal): 8.65 µM
GI50 (DU-145 prostate): 5.51 µM
TGI (DU-145 prostate): > 100 µM
GI50 (NCI-H226 lung): 15.2 µM
TGI (NCI-H226 lung): 80.7 µM
GI50 (HT29 colon): 22.2 µM
TGI (HT29 colon): > 100 µM
GI50 (UACC-62 melanoma): 4.59 µM
TGI (UACC-62 melanoma): 23.2 µM
GI50 (M14 melanoma): 18.6 µM
TGI (M14 melanoma): 50.8 µM
GI50 (MDA-MB-435): 1.89 µM
TGI (MDA-MB-435): 4.4 µM
GI50 (LOX IMVI melanoma): 39.2 µM
TGI (LOX IMVI melanoma): > 100 µM
